Results on eleven compounds are retold here after PMC10714133 (RSC Advances, 2023).

A value given as a limit tells only on which side of the number the result lay.

The test system of one experiment is P. knowlesi A1H1. In words: Plasmodium lactate dehydrogenase. It is filed as cell-based, Plasmodium knowlesi. As to conditions: for Selectivity index (SI) P. knowlesi: IC50 WRL-68 / EC50 PkA1H1; for Antimalarial activity class against A1H1 strain: class by EC50 threshold; for EC50 against A1H1 strain, fold higher than CQ: relative to chloroquine diphosphate.
For another experiment, the system named is P. falciparum 3D7. In words: Plasmodium lactate dehydrogenase. As to conditions: for Selectivity index (SI) P. falciparum: IC50 WRL-68 / EC50 Pf3D7; for Antimalarial activity class against 3D7 strain: class by EC50 threshold; for EC50 against 3D7, fold higher than CQ: relative to chloroquine diphosphate. It is filed as cell-based, Plasmodium falciparum.
Experiment [1] has as its system WRL-68 cell (human normal liver cell line). In words: MTT cytotoxicity assay. It is filed as cell-based. As to conditions: read-out: WRL-68 cell (mammalian cell) IC50 (μM) ± SD, 72 hours incubation. Background: Tetrazolium dyes change colour on reduction, which living cells bring about.

For the compound `O=C(/C=C/c1ccc(O)cc1)c1ccc(F)cc1` [Compound 1b, (E)-1-(4-Fluorophenyl)-3-(4-hydroxyphenyl)prop-2-en-1-one], the “Selectivity index (SI) P. knowlesi” value in the experiment on P. knowlesi A1H1 was determined as 0.14.
Take `O=C(/C=C/c1ccc(O)c(CN2CCCCC2)c1)c1ccc(F)cc1` [Compound 2c, (E)-1-(4-Fluorophenyl)-3-(4-hydroxy-3-(piperidin-1-ylmethyl)phenyl)prop-2-en-1-one]: in the experiment with P. knowlesi A1H1, the “Selectivity index (SI) P. knowlesi” value is 1.09.
In the case of `CC1CCN(Cc2cc(/C=C/C(=O)c3ccc(Cl)cc3)ccc2O)CC1` [Compound 2f, (E)-1-(4-Chlorophenyl)-3-(4-hydroxy-3-((4-methylpiperidin-1-yl)methyl)phenyl)prop-2-en-1-one], in the experiment on P. knowlesi A1H1, the “Selectivity index (SI) P. knowlesi” value stood at 4.10 and the “Antimalarial activity class against A1H1 strain” value was “active”. Moreover, in the experiment on P. falciparum 3D7, the “Selectivity index (SI) P. falciparum” value is 4.73 and the “Antimalarial activity class against 3D7 strain” value is “good”.
Take `O=C(/C=C/c1ccc(O)c(CN2CCOCC2)c1)c1ccc(F)cc1` [Compound 2b, (E)-1-(4-Fluorophenyl)-3-(4-hydroxy-3-(morpholinomethyl)phenyl)prop-2-en-1-one]: the “Selectivity index (SI) P. knowlesi” value with P. knowlesi A1H1 amounted to 0.65.
Turning to `O=C(/C=C/c1cccc(O)c1)c1ccc(F)cc1` [Compound 1a, (E)-1-(4-Fluorophenyl)-3-(3-hydroxyphenyl)prop-2-en-1-one], the “Selectivity index (SI) P. knowlesi” value with P. knowlesi A1H1 came to 1.34. Moreover, the “Selectivity index (SI) P. falciparum” value with P. falciparum 3D7 was 1.50.
As to `O=C(/C=C/c1cccc(O)c1)c1ccc(Cl)cc1` [Compound 1d, (E)-1-(4-Chlorophenyl)-3-(3-hydroxyphenyl)prop-2-en-1-one], the “Selectivity index (SI) P. knowlesi” value in the experiment with P. knowlesi A1H1 is recorded as 0.31.
For `CC1CCN(Cc2ccc(/C=C/C(=O)c3ccc(Cl)cc3)cc2O)CC1` [Compound 2g, (E)-1-(4-Chlorophenyl)-3-(3-hydroxy-4-((4-methylpiperidin-1-yl)methyl)phenyl)prop-2-en-1-one], the “Selectivity index (SI) P. knowlesi” value in the experiment with P. knowlesi A1H1 was 0.47. Besides, the “Selectivity index (SI) P. falciparum” value with P. falciparum 3D7 is reported as 0.54.
On to `O=C(/C=C/c1ccc(CN2CCCCC2)c(O)c1)c1ccc(F)cc1` [Compound 2a, (E)-1-(4-Fluorophenyl)-3-(3-hydroxy-4-(piperidin-1-ylmethyl)phenyl)prop-2-en-1-one], for which, in the experiment with P. knowlesi A1H1, the “Selectivity index (SI) P. knowlesi” value is given as 10.50; the “Antimalarial activity class against A1H1 strain” value is “active”; the “EC50 against A1H1 strain, fold higher than CQ” value is “about 66 fold”. In the experiment on P. falciparum 3D7, the “Antimalarial activity class against 3D7 strain” value was “potential (EC50 < 1 μM as potential activity)” and the “EC50 against 3D7, fold higher than CQ” value is “about 48 fold”.
In the case of `O=C(/C=C/c1ccc(CN2CCCCC2)c(O)c1)c1ccc(Br)cc1` [Compound 2h, (E)-1-(4-Bromophenyl)-3-(3-hydroxy-4-(piperidin-1-ylmethyl)phenyl)prop-2-en-1-one], in the experiment with P. knowlesi A1H1, the “EC50 against A1H1 strain, fold higher than CQ” value is recorded as “about 3 fold”. In the experiment with P. falciparum 3D7, the “Antimalarial activity class against 3D7 strain” value is “potential (EC50 < 1 μM as potential activity)” and the “EC50 against 3D7, fold higher than CQ” value is 83 fold. Further, the IC50 in experiment [1] was above 99 µM.
As for `CCN(CC)CCCC(C)Nc1ccnc2cc(Cl)ccc12` (stereo not drawn) [CQ, chloroquine diphosphate, reference compound], the “Selectivity index (SI) P. knowlesi” value in the experiment on P. knowlesi A1H1 was above 2500. In the experiment on P. falciparum 3D7, the “Selectivity index (SI) P. falciparum” value is above 2500.
Turning to `O=C(/C=C/c1ccc(O)cc1)c1ccc(Cl)cc1` [Compound 1c, (E)-1-(4-Chlorophenyl)-3-(4-hydroxyphenyl)prop-2-en-1-one], the “Selectivity index (SI) P. knowlesi” value in the experiment with P. knowlesi A1H1 stood at 0.52.

As usually defined, the IC50 is the concentration at which inhibition is half-maximal.
